Among the data in patent publication US7417066B2, “Inhibitors of soluble adenylate cyclase” (Schering AG, priority 2005, dated 2008) are IC50 values, retold here.

The structures appear in SMILES notation.

Chain of soluble, sperm-specific adenylate cyclase (sAC) (Q96PN6 whole entry): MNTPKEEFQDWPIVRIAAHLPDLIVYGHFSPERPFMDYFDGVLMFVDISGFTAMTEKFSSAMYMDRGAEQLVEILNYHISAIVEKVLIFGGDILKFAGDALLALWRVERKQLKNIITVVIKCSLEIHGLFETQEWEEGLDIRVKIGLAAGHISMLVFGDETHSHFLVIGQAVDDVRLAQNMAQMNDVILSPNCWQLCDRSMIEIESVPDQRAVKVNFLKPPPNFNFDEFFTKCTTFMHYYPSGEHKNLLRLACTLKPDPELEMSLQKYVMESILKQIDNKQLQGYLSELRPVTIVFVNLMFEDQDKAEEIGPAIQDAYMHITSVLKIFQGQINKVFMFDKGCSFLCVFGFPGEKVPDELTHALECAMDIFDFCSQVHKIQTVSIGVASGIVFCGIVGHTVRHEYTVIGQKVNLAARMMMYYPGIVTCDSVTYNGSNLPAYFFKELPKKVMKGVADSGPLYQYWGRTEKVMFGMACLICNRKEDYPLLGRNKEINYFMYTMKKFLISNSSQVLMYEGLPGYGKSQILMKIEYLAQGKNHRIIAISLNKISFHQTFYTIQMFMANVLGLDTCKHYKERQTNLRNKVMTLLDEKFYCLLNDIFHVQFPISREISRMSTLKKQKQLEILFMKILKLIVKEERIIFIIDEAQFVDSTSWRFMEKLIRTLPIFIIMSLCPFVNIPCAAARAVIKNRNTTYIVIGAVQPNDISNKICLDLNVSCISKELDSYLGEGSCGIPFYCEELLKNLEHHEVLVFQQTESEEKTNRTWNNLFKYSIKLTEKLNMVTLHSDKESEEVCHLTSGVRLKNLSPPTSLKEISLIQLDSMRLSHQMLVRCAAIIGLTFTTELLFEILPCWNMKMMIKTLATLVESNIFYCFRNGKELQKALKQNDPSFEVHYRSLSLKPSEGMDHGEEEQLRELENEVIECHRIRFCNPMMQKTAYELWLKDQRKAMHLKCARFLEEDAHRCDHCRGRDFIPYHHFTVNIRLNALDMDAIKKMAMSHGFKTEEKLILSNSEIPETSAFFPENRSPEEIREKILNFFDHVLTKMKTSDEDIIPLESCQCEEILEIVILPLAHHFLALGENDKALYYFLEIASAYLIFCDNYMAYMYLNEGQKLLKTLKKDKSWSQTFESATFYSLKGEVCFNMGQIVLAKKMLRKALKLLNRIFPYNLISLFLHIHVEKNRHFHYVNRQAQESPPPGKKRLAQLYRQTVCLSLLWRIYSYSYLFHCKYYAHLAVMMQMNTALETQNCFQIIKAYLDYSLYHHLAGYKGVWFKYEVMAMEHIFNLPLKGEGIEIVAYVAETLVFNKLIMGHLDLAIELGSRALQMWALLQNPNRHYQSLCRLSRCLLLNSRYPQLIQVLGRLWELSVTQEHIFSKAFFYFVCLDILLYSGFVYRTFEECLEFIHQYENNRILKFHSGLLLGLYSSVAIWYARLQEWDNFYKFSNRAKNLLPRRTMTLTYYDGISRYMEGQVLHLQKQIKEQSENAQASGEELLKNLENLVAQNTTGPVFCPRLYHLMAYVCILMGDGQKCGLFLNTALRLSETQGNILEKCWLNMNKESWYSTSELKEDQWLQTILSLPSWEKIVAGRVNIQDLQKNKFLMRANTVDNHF

The target of the assay is soluble, sperm-specific adenylate cyclase (sAC) (Homo sapiens, UniProt Q96PN6). The assay can be described thus: sAC assay (HTRF cAMP detection). The class given is biochemical. Particulars: read-out: IC50 (μM), inhibition of soluble adenylate cyclase. The source says:
In a suitable buffer system, soluble, sperm-specific adenylate cyclase catalyzes the conversion of adenosine triphosphate (ATP) to cyclic adenosine monophosphate (cAMP) and pyrophosphate. Free cAMP generated in this way is then used in a competitive detection technique, in which the binding of a europium cryptate Eu[K]-labeled anti-cAMP antibody (anti-cAMP-Eu[K]-AB) to a modified allophycocyanine-1 molecule labeled with cAMP molecules (cAMP-XL665) is prevented. In the absence of exogenous cAMP, after excitation at 335 nm there is Fluorescence Resonance Energy Transfer (FRET) between the anti-cAMP-Eu[K]-AB (FRET donor) and the cAMP-XL665 molecule (FRET acceptor). This process is quantified, time-resolved, on the basis of the emission of the FRET acceptor XL665 (665 nm and 620 nm). A decrease in signal (measured as Well Ratio; calculated from the Formula: [(E665 nm/E620 nm)×10000]) can be attributed to the presence of cAMP and thus to the activity of sAC. First, 1.5 μl of the test substance (in 30% DMSO) is placed in each well of a 384-well test plate (polystyrene; 384, NV), and in the solvent controls only 30% DMSO. Then 10 μl of a dilute sAC enzyme solution is applied (enzyme stock solution in 300 mM NaCl, 10% glycerol; pH 7.6; enzyme intermediate and final dilution a) 1:10 and b) 1:2000 in each case in: 1.0 mM MnCl2; 0.2% BSA; 50 mM Tris pH 7.5 in H2O). […]
Next, 8 μl of detection solution 1 is placed in a well of the 384-well measuring plate (measuring plate: polystyrene; 384, SV—black; detection solution 1: 50 μl cAMP-XL665; 950 μl reconstituted buffer; 2200 μl PBS; cAMP-XL665: prepared by adding 5 ml H2O to the lyophilized product according to the instructions in Cis bio Kit: 62AMPPEC; storage: in aliquots at −80° C.). […] After further incubation for 90 min at room temperature, the HTRF result is measured either on the Packard Discovery or with the RubiStar HTRF measuring instrument (delay: 50 μs; integration time: 400 μs).
In the case of `CC(O)CNC(=O)c1oc2ccc(NS(=O)(=O)c3ccc(C(C)(C)C)cc3)cc2c1-c1ccccc1` (racemic) [Example 16, (+/−)-5-(4-tert-Butylphenylsulfonylamino)-3-phe-nyl-1-benzofuran-2-carboxylicacid-(2-hydroxypropyl)amide], the half-maximal inhibitory concentration (IC50) amounted to 4.3 µM.
For `CC(CO)NC(=O)c1oc2ccc(NS(=O)(=O)c3ccc(C(C)(C)C)cc3)cc2c1-c1ccccc1` (racemic) [Example 17, (+/−)-5-(4-tert-Butylbenzenesulfonylamino)-3-phe-nyl-1-benzofuran-2-carboxylicacid-(2-hydroxy-1-meth-ylethyl)amide] the value was 8.5 µM.
For `CC(C)(C)c1ccc(S(=O)(=O)Nc2ccc3oc(C(=O)NCCN4CCOCC4)c(-c4ccccc4)c3c2)cc1` [Example 6, 5-(4-tert-Butylbenzenesulfonylamino)-3-phe-nyl-1-benzofuran-2-carboxylicacid-(2-morpholin-4-ylethyl)amide] the value was 5.2 µM.

In general, IC50 refers to the concentration that gives 50% inhibition.
